Structures are written as SMILES.

The test relates to RSV Long strain. Briefly: Viral cytopathic effect (CPE) assay, anti-RSV activity. In kind it is cell-based, Respiratory Syncytial Virus. The conditions noted are these: human respiratory syncytial virus, 144 h, RSV Long strain (ATCC); cell viability after 6 days, Cell Counting kit-8. As to the method: Viral cytopathic effect (CPE) assay: To measure anti-RSV activity of compounds, 96-well plates are seeded with 6×10^3 cells per well in Dulbecco's modified Eagle's medium (DMEM) containing 10% fetal bovine serum (FBS). Cells are infected the next day with sufficient RSV Long strain (ATCC) to produce an approximately 80-90% cytopathic effect after 6 days, in the presence of serial half-log diluted compound in a total volume of 200 μL per well. The viability of cells is assessed after 6 days using Cell Counting kit-8 (Dojindo Molecular Technologies). The absorbance at 450 nm and referenced at 630 nm is measured to determine 50% effective concentration (EC50).
The compounds of the present invention were tested for their anti-RSV activity, and the activation as described herein. The Examples were tested in the above assay and found to have EC50 of about 0.0001 μM to about 10 μM.
In general terms: Cytopathic effects are the visible damage that an infection or toxin causes in cultured cells.
For orientation: EC50 means the concentration giving half of the maximal effect. On to `Cc1ccc2nc(N3CCS(=O)(=O)c4ccccc4C3)cc(NCC3(N)CC3)c2c1` [Example 21-5, (1-Amino-cyclopropylmethyl)-[2-(5,5-dioxo-5,6,7,9-tetrahydro-5λ^6-thia-8-aza-benzocyclohepten-8-yl)-6-methyl-quinolin-4-yl]-amine], for which a half-maximal effect (EC50) was put at 0.007 µM.

In turn, `Cc1ccc2nc(N3CCS(=O)(=O)c4ccccc4C3)cc(N3C[C@H](O)C(C)(C)C3)c2c1` [Example 3-17, (R)-1-[2-(1,1-Dioxido-2,3-dihydro-1,4-benzothiazepin-4(5H)-yl)-6-methylquinolin-4-yl]-4,4-dimethyl-pyrrolidin-3-ol] registered a concentration giving a half-maximal response (EC50) of 5.05 µM. Consider `Cc1ccc2nc(N3CCS(=O)(=O)c4ccccc4C3)cc(NC3CCOCC3)c2c1` [Example 3-27, 2-(1,1-Dioxido-2,3-dihydro-1,4-benzothiazepin-4(5H)-yl)-6-methyl-N-(tetrahydro-2H-pyran-4-yl)quinolin-4-amine], for which the EC50 was determined as 1.39 µM. `CSc1ccc2nc(N3CCS(=O)(=O)c4ccccc4C3)cc(NCCCN)c2c1` [Example 9-33, N-[2-(1,1-Dioxido-2,3-dihydro-1,4-benzothiazepin-4(5H)-yl)-6-(methylsulfanyl)quinolin-4-yl]propane-1,3-diamine] registered an EC50 of 0.057 µM. As for `Cc1ccc2nc(N3CCS(=O)(=O)c4ccccc4C3)cc(NCCC3(N)CC3)c2c1` [Example 20-3, [2-(1-Amino-cyclopropyl)-ethyl]-[2-(1,1-dioxido-2,3-dihydro-1,4-benzothiazepin-4(5H)-yl)-6-methylquinolin-4-yl]-amine], the figure is 0.093 µM.

Turning to `Cc1ccc2nc(N3CCS(=O)(=O)c4ccccc4C3)cc(N[C@@H]3CNC[C@H]3O)c2c1` (relative stereo) [Example 28-3, trans-4-{[2-(1,1-Dioxido-2,3-dihydro-1,4-benzothiazepin-4(5H)-yl)-6-methylquinolin-4-yl]amino}pyrrolidin-3-ol], the concentration for a half-maximal effect (EC50) worked out at 0.001 µM. Then `Cc1ccc2nc(N3CCS(=O)(=O)c4ccccc4C3)cc(N(C)C)c2c1` [Example 16-2, 2-(1,1-Dioxido-2,3-dihydro-1,4-benzothiazepin-4(5H)-yl)-N,N,6-trimethylquinolin-4-amine], with 9.64 µM. Then `C[S+]([O-])c1ccc2nc(N3CCS(=O)(=O)c4ccccc4C3)cc(NCCCN)c2c1` (centres unmarked) [Example 80, N-[2-(1,1-Dioxido-2,3-dihydro-1,4-benzothiazepin-4(5H)-yl)-6-(methylsulfinyl)quinolin-4-yl]propane-1,3-diamine], with 5.48 µM; and `Cc1ccc2nc(N3CCS(=O)(=O)c4ccccc4C3)cc(Nc3ccon3)c2c1` [Example 3-64, 2-(1,1-Dioxido-2,3-dihydro-1,4-benzothiazepin-4(5H)-yl)-6-methyl-N-(1,2-oxazol-3-yl)quinolin-4-amine], with 0.874 µM. Then `Cc1ccc2nc(N3CCS(=O)(=O)c4c(F)cccc4C3)cc(NCC3(N)COC3)c2c1` [Example 1-4, N-[(3-Aminooxetan-3-yl)methyl]-2-(9-fluoro-1,1-dioxido-2,3-dihydro-1,4-benzothiazepin-4(5H)-yl)-6-methylquinolin-4-amine], with 0.004 µM; and `Cc1ccc2nc(N3CCS(=O)(=O)c4ccccc4C3)cc(NCC(O)CCO)c2c1` (centres unmarked) [Example 68, 4-{[2-(1,1-Dioxido-2,3-dihydro-1,4-benzothiazepin-4(5H)-yl)-6-methylquinolin-4-yl]amino}butane-1,3-diol], with 2.01 µM; and `Cc1ccc2nc(N3CCC(F)(F)c4ccccc4C3)nc(NCC(CN)(CO)CO)c2c1` [Example 114-4, 2-(Aminomethyl)-2-({[2-(5,5-difluoro-1,3,4,5-tetrahydro-2H-2-benzazepin-2-yl)-6-methylquinazolin-4-yl]amino}methyl)propane-1,3-diol], with 0.186 µM. `Cc1ccc2nc(N3CCCc4ccc(F)cc4C3)cc(NCCN)c2c1` [Example 118-4, N-[2-(8-Fluoro-1,3,4,5-tetrahydro-2H-2-benzazepin-2-yl)-6-methylquinolin-4-yl]ethane-1,2-diamine]: the concentration giving a half-maximal response (EC50) amounted to 0.104 µM.

In turn, `Cc1ccc2nc(N3CCS(=O)(=O)c4ccccc4C3)cc(NCC3CCCCN3)c2c1` (centres unmarked) [Example 3-41, 2-(1,1-Dioxido-2,3-dihydro-1,4-benzothiazepin-4(5H)-yl)-6-methyl-N-(piperidin-2-ylmethyl)quinolin-4-amine] had a half-maximal effective concentration (EC50) of 0.071 µM. Then `O=S1(=O)CCN(c2nc(NCC(O)CO)c3cc(Cl)ccc3n2)Cc2ccccc21` (centres unmarked) [Example 87-2], with 9.31 µM; and `NCCNc1cc(N2CCCc3ccccc3C2)nc2ccc(Cl)cc12` [Example 118-5, N-[6-Chloro-2-(1,3,4,5-tetrahydro-2H-2-benzazepin-2-yl)quinolin-4-yl]ethane-1,2-diamine], with 0.178 µM. Regarding `Cc1ccc2nc(N3CCS(=O)(=O)c4ccccc4C3)cc(NCC(C)(O)CO)c2c1` (centres unmarked) [Example 67, 3-{[2-(1,1-Dioxido-2,3-dihydro-1,4-benzothiazepin-4(5H)-yl)-6-methylquinolin-4-yl]amino}-2-methylpropane-1,2-diol], the response was half-maximal at 0.585 µM (EC50). As for `Cc1ccc2nc(N3CCS(=O)(=O)c4ccccc4C3)cc(NCC3(CO)COC3)c2c1` [Example 3-9, [3-({[2-(1,1-Dioxido-2,3-dihydro-1,4-benzothiazepin-4(5H)-yl)-6-methylquinolin-4-yl]amino}methyl)oxetan-3-yl]methanol], the figure is 0.248 µM; as for `Cc1ccc2nc(N3CCS(=O)(=O)c4ccccc4C3)cc(N3C[C@@H](N)[C@H](O)C3)c2c1` (relative stereo) [Example 19-3, trans-4-Amino-1-[2-(1,1-dioxido-2,3-dihydro-1,4-benzothiazepin-4(5H)-yl)-6-methylquinolin-4-yl]pyrrolidin-3-ol], 0.006 µM. Compound `NCCNc1cc(N2CCCc3cccc(F)c3C2)nc2ccc(Cl)cc12` [Example 118-6, N-[6-Chloro-2-(9-fluoro-1,3,4,5-tetrahydro-2H-2-benzazepin-2-yl)quinolin-4-yl]ethane-1,2-diamine] had a concentration giving a half-maximal response (EC50) of 0.173 µM. As for `Cc1ccc2nc(N3CCS(=O)(=O)c4ccccc4C3)cc(N3CCCC(N)C3)c2c1` (centres unmarked) [Example 16-1, 1-[2-(1,1-Dioxido-2,3-dihydro-1,4-benzothiazepin-4(5H)-yl)-6-methylquinolin-4-yl]piperidin-3-amine], the figure is 2.57 µM; as for `Cc1ccc2nc(N3CCS(=O)(=O)c4ccccc4C3)cc(NCC3CNCCO3)c2c1` (centres unmarked) [Example 21-1, 2-(1,1-Dioxido-2,3-dihydro-1,4-benzothiazepin-4(5H)-yl)-6-methyl-N-(morpholin-2-ylmethyl)quinolin-4-amine], 0.023 µM. Then `Cc1ccc2nc(N3CCC(F)(F)c4ccccc4C3)cc(NCCN3CCNCC3)c2c1` [Example 110-7, 2-(5,5-Difluoro-1,3,4,5-tetrahydro-2H-2-benzazepin-2-yl)-6-methyl-N-[2-(piperazin-1-yl)ethyl]quinolin-4-amine], with 1.18 µM; and `Cc1ccc2nc(N3CCS(=O)(=O)c4ccccc4C3)cc(NCC(F)CN)c2c1` (centres unmarked) [Example 3-21, N-[2-(1,1-Dioxido-2,3-dihydro-1,4-benzothiazepin-4(5H)-yl)-6-methylquinolin-4-yl]-2-fluoropropane-1,3-diamine], with 0.006 µM; and `NCCNc1cc(N2CCCc3ccccc3C2)nc2ccc(C(F)(F)F)cc12` [Example 118-19, N-[2-(1,3,4,5-Tetrahydro-2H-2-benzazepin-2-yl)-6-(trifluoromethyl)quinolin-4-yl]ethane-1,2-diamine], with 1.24 µM.

`Cc1ccc2nc(N3CCS(=O)(=O)c4ccccc4C3)cc(NC3CCCNC3)c2c1` (centres unmarked) [Example 3-40, 2-(1,1-Dioxido-2,3-dihydro-1,4-benzothiazepin-4(5H)-yl)-6-methyl-N-(piperidin-3-yl)quinolin-4-amine] returned an EC50 of 0.022 µM.

On to `NCCCNc1cc(N2CCS(=O)(=O)c3ccccc3C2)nc2ccc(Br)cc12` [Example 9-34, N-[6-Bromo-2-(1,1-dioxido-2,3-dihydro-1,4-benzothiazepin-4(5H)-yl)quinolin-4-yl]propane-1,3-diamine], for which the EC50 is 0.024 µM. `Cc1ccc2nc(N3CCS(=O)(=O)c4ccccc4C3)nc(NC3CCNC3)c2c1` (centres unmarked) [Example 135-2, 2-(1,1-Dioxido-2,3-dihydro-1,4-benzothiazepin-4(5H)-yl)-6-methyl-N-(pyrrolidin-3-yl)quinazolin-4-amine] showed an EC50 of 0.018 µM. Turning to `Cc1ccc2nc(N3CCS(=O)(=O)c4ccccc4C3)cc(NC3COC3)c2c1` [Example 3-47, 2-(1,1-Dioxido-2,3-dihydro-1,4-benzothiazepin-4(5H)-yl)-6-methyl-N-(oxetan-3-yl)quinolin-4-amine], the EC50 was 0.101 µM. Then `Cc1ccc2nc(N3CCS(=O)(=O)c4ccccc4C3)cc(N3C[C@H](O)CC3=O)c2c1` [Example 47-1, (4R)-1-[2-(1,1-Dioxido-2,3-dihydro-1,4-benzothiazepin-4(5H)-yl)-6-methylquinolin-4-yl]-4-hydroxypyrrolidin-2-one], with 7.88 µM. Then `Cc1ccc2nc(N3CCS(=O)(=O)c4ccccc4C3)cc(N3CCC(C)(N)C3)c2c1` (centres unmarked) [Example 64, 1-[2-(1,1-Dioxido-2,3-dihydro-1,4-benzothiazepin-4(5H)-yl)-6-methylquinolin-4-yl]-3-methylpyrrolidin-3-amine], with 0.035 µM; and `Cc1ccc2nc(N3CCS(=O)(=O)c4ccccc4C3)cc(NC(=O)CO)c2c1` [Example 47-9, N-[2-(1,1-Dioxido-2,3-dihydro-1,4-benzothiazepin-4(5H)-yl)-6-methylquinolin-4-yl]-2-hydroxyacetamide], with 0.192 µM.

Values taken from patent US8871756B2 (Hoffmann-La Roche Inc., priority 2011, dated 2014).
